Data: patent US7537891B2, “Identification of polynucleotides for predicting activity of compounds that interact with and/or modulate protein tyrosine kinases and/or protein tyrosine kinase pathways in breast cells” (Bristol-Myers Squibb Company, priority 2002, dated 2009)

Legend:
Experiment in all cases: In vitro cytotoxicity assay (MTS)
Assay type in all cases: cell-based, human
Design in all cases: key to True Class: “S” represents Sensitive; “R” represents Resistant
ZR-75-1 breast cell line = tested on: ZR-75-1 breast cell line
Description: (§1) The protein tyrosine kinase inhibitor compound (described in international application WO 00/62778, published Oct. 26, 2000) was tested for cytotoxicity in vitro against a panel of twenty-three human breast cell lines available from the American Type Culture Collection, ATCC, except H3396, which was obtained from Pacific Northwest Research Institute, Seattle Wash. The MCF7/Her2 cell line was established by stable transfection of MCF7 cells with the HER2 gene. Cytotoxicity was assessed in cells by the MTS (3-(4,5-dimethylthiazol-2-yl)-5-(3-carboxymethoxyphenyl)-2-(4-sulphenyl)-2H-tetrazolium, inner salt) assay (T. L. Riss et al., 1992, Mol. Biol. Cell, 3 (Suppl.):184a).
(§2) To carry out the assays, the breast cells were plated at 4,000 cells/well in 96 well microtiter plates, and 24 hours later, serially diluted drugs were added. The concentration range for the protein tyrosine kinase inhibitor compound BMS-A used in the cytotoxicity assay was from 5 μg/ml to 0.0016 μg/ml (roughly 10 μM to 0.0032 μM).
(§3) The cells were incubated at 37° C. for 72 hours at which time the tetrazolium dye, MTS (333 μg/ml final concentration), in combination with the electron coupling agent phenazine methosulfate (25 μM final concentration), was added. A dehydrogenase enzyme in live cells reduces the MTS to a form that absorbs light and can be quantified spectrophotometrically at 492 nM. The greater the absorbency the greater the number of live cells. The results are expressed as an IC50, which is the drug concentration required to inhibit cell proliferation (i.e. absorbance at 492 nm) to 50% of that of untreated control cells. The mean IC50 and standard deviation (SD) from multiple tests for each cell line were calculated.

[1] = tested on: MDA-MB-468 breast cell line
Description: as §1, §2, §3

HCC70 breast cell line = tested on: HCC70 breast cell line
Description: as §1, §2, §3

HCC1806 breast cell line = tested on: HCC1806 breast cell line
Description: as §1, §2, §3

BT-549 breast cell line = tested on: BT-549 breast cell line
Description: as §1, §2, §3

AU-565 breast cell line = tested on: AU-565 breast cell line
Description: as §1, §2, §3

HCC1954 breast cell line = tested on: HCC1954 breast cell line
Description: as §1, §2, §3

BT-474 breast cell line = tested on: BT-474 breast cell line
Description: as §1, §2, §3

BT-20 breast cell line = tested on: BT-20 breast cell line
Description: as §1, §2, §3

[2] = tested on: ZR-75-30 breast cell line
Description: as §1, §2, §3

[3] = tested on: MDA-MB-436 breast cell line
Description: as §1, §2, §3

HS578T breast cell line = tested on: HS578T breast cell line
Description: as §1, §2, §3

HCC1419 breast cell line = tested on: HCC1419 breast cell line
Description: as §1, §2, §3

MCF7 breast cell line = tested on: MCF7 breast cell line
Description: as §1, §2, §3

SK-BR-3 breast cell line = tested on: SK-BR-3 breast cell line
Description: as §1, §2, §3

[4] = 72 hours, mean of 2 to 5 determinations, read-out: mean IC50 (μM) to BMS-A
[5] = assigned as in Table 1, based on the IC50 results for BMS-A
[6] = resistance/sensitivity to BMS-A based on IC50

What does the source list for `Cc1nc(Nc2ncc(C(=O)Nc3c(C)cccc3Cl)s2)cc(N2CCN(CCO)CC2)n1` [BMS-A]?
IC50 (ZR-75-1 breast cell line; ZR-75-1, 72 hours, mean of 2 to 5 determinations, read-out: mean IC50 (μM) to BMS-A): > 9.52 µM; Classification (ZR-75-1 breast cell line; ZR-75-1, resistance/sensitivity to BMS-A based on IC50): Resistant (those having a log10(IC50) above the mean log10(IC50) were considered to be resistant); True Class (ZR-75-1 breast cell line; Zr-75-1, assigned as in Table 1, based on the IC50 results for BMS-A): R; IC50 ([1]; MDA-MB-468, 72 hours, mean of 2 to 5 determinations, read-out: mean IC50 (μM) to BMS-A): 7.13 µM; Classification ([1]; MDA-MB-468, resistance/sensitivity to BMS-A based on IC50): Resistant (those having a log10(IC50) above the mean log10(IC50) were considered to be resistant); True Class ([1]; MDAMB468, assigned as in Table 1, based on the IC50 results for BMS-A): R; IC50 (HCC70 breast cell line; [4]): 0.0337 µM; True Class (HCC70 breast cell line; [5]): S; Classification (HCC70 breast cell line; [6]): Sensitive (The cell lines with a log10(IC50) below the mean log10(IC50) were defined as sensitive to the compound); IC50 (HCC1806 breast cell line; [4]): 0.219 µM; True Class (HCC1806 breast cell line; [5]): S; Classification (HCC1806 breast cell line; [6]): Sensitive (The cell lines with a log10(IC50) below the mean log10(IC50) were defined as sensitive to the compound); True Class (BT-549 breast cell line; BT549, assigned as in Table 1, based on the IC50 results for BMS-A): R; IC50 (BT-549 breast cell line; BT-549, 72 hours, mean of 2 to 5 determinations, read-out: mean IC50 (μM) to BMS-A): 9.06 µM; Classification (BT-549 breast cell line; BT-549, resistance/sensitivity to BMS-A based on IC50): Resistant (those having a log10(IC50) above the mean log10(IC50) were considered to be resistant); True Class (AU-565 breast cell line; AU565, assigned as in Table 1, based on the IC50 results for BMS-A): R; IC50 (AU-565 breast cell line; AU-565, 72 hours, mean of 2 to 5 determinations, read-out: mean IC50 (μM) to BMS-A): 5.24 µM; Classification (AU-565 breast cell line; AU-565, resistance/sensitivity to BMS-A based on IC50): Resistant (those having a log10(IC50) above the mean log10(IC50) were considered to be resistant); IC50 (HCC1954 breast cell line; [4]): 0.0242 µM; True Class (HCC1954 breast cell line; [5]): S; Classification (HCC1954 breast cell line; [6]): Sensitive (The cell lines with a log10(IC50) below the mean log10(IC50) were defined as sensitive to the compound); True Class (BT-474 breast cell line; BT474, assigned as in Table 1, based on the IC50 results for BMS-A): R; IC50 (BT-474 breast cell line; BT-474, 72 hours, mean of 2 to 5 determinations, read-out: mean IC50 (μM) to BMS-A): 6.74 µM; Classification (BT-474 breast cell line; BT-474, resistance/sensitivity to BMS-A based on IC50): Resistant (those having a log10(IC50) above the mean log10(IC50) were considered to be resistant); True Class (BT-20 breast cell line; BT20, assigned as in Table 1, based on the IC50 results for BMS-A): S; IC50 (BT-20 breast cell line; BT-20, 72 hours, mean of 2 to 5 determinations, read-out: mean IC50 (μM) to BMS-A): 0.165 µM; Classification (BT-20 breast cell line; BT-20, resistance/sensitivity to BMS-A based on IC50): Sensitive (The cell lines with a log10(IC50) below the mean log10(IC50) were defined as sensitive to the compound); IC50 ([2]; ZR-75-30, 72 hours, mean of 2 to 5 determinations, read-out: mean IC50 (μM) to BMS-A): 9.26 µM; Classification ([2]; ZR-75-30, resistance/sensitivity to BMS-A based on IC50): Resistant (those having a log10(IC50) above the mean log10(IC50) were considered to be resistant); True Class ([2]; Zr-75-30, assigned as in Table 1, based on the IC50 results for BMS-A): R; IC50 ([3]; MDA-MB-436, 72 hours, mean of 2 to 5 determinations, read-out: mean IC50 (μM) to BMS-A): > 9.52 µM; Classification ([3]; MDA-MB-436, resistance/sensitivity to BMS-A based on IC50): Resistant (those having a log10(IC50) above the mean log10(IC50) were considered to be resistant); True Class ([3]; MDAMB436, assigned as in Table 1, based on the IC50 results for BMS-A): R; IC50 (HS578T breast cell line; HS578T, 72 hours, mean of 2 to 5 determinations, read-out: mean IC50 (μM) to BMS-A): 0.647 µM; Classification (HS578T breast cell line; HS578T, resistance/sensitivity to BMS-A based on IC50): Sensitive (The cell lines with a log10(IC50) below the mean log10(IC50) were defined as sensitive to the compound); True Class (HS578T breast cell line; Hs578T, assigned as in Table 1, based on the IC50 results for BMS-A): S; IC50 (HCC1419 breast cell line; [4]): 2.51 µM; True Class (HCC1419 breast cell line; [5]): R; Classification (HCC1419 breast cell line; [6]): Resistant (those having a log10(IC50) above the mean log10(IC50) were considered to be resistant); IC50 (MCF7 breast cell line; [4]): > 9.52 µM; True Class (MCF7 breast cell line; [5]): R; Classification (MCF7 breast cell line; [6]): Resistant (those having a log10(IC50) above the mean log10(IC50) were considered to be resistant); IC50 (SK-BR-3 breast cell line; SK-BR-3, 72 hours, mean of 2 to 5 determinations, read-out: mean IC50 (μM) to BMS-A): 2.75 µM; Classification (SK-BR-3 breast cell line; SK-BR-3, resistance/sensitivity to BMS-A based on IC50): Resistant (those having a log10(IC50) above the mean log10(IC50) were considered to be resistant); True Class (SK-BR-3 breast cell line; SkBr3, assigned as in Table 1, based on the IC50 results for BMS-A): R
